How the values were obtained:
[1] = Dissociation constant, pKa of the compound; type: physicochemical
[2] = Ratio of drug level in brain to plasma in C57BL/6 mouse at 300 umol/kg, po administered as single dose 15 mins after GF120918 90 umol/kg, po measured after […] by RPLC-MS/MS analysis; type: ADME, organism-based; conditions: with GF120918 90 umol/kg po, read-out: BPR
[3] = Ratio of drug level in brain to plasma in C57BL/6 mouse at 300 umol/kg, po administered as single dose measured after […] by RPLC-MS/MS analysis; type: ADME, organism-based; conditions: read-out: BPR
[4] = Drug uptake in C57BL/6 mouse brain at 300 umol/kg, po administered as single dose 15 mins after GF120918 90 umol/kg, po measured after […] by RPLC-MS/MS analysis; type: ADME, organism-based; conditions: with GF120918 90 umol/kg po, read-out: Drug uptake

SMILES	pKa [1]	further results
NC1=NC(c2ccncc2)(c2cccc(-c3cncnc3)c2)C2=NCCCN12 (centres undefined)	7.6	
COc1cccc(-c2cccc([C@]3(c4ccncc4)N=C(N)N4CC(F)(F)CN=C43)c2)c1F	5.3	
COc1ccc(C2(c3cccc(-c4cncnc4)c3)N=C(N)N3CC(F)(F)CN=C32)cc1 (centres undefined)	6.8	
NC1=NC(c2ccc(OC(F)F)cc2)(c2cccc(-c3cncnc3)c2)C2=NCC(F)(F)CN12 (centres undefined)	6.1	
COc1ccc(F)c(-c2cccc(C3(c4ccncc4)N=C(N)N4CC(F)(F)CN=C43)c2)c1 (centres undefined)	5.9	
NC1=NC(c2ccc(OC(F)F)cc2)(c2cccc(OCCCF)c2)C2=NCC(F)(F)CN12 (centres undefined)	6.5	
NC1=N[C@](c2ccc(OC(F)F)cc2)(c2cccc(OCCCF)c2)C2=NCC(F)(F)CN12		Kp at […] [2]: 2.34; Kp at […] [3]: 0.18; concentration at […] [4]: 4 µM
